In general, inhibition refers to the drop in the measured response relative to a control, in per cent. For orientation: melting point means the temperature, or range, at which the solid turns liquid.

28 molecules from patent US9421209B2, “Kinase modulators” (Rhizen Pharmaceuticals SA, priority 2009, dated 2016) can be followed below.

Each structure is given as a SMILES string.

For one data set, the target named is P110 δ/Pi3K δ (Homo sapiens, UniProt O00329). Description: Fluorescent (HTRF) determination of PI3K enzyme activity, δ isoform. The format is biochemical. Also noted: inhibition: dose or concentration left out as unconfirmed. Conditions: for IC50: read-out: P110 δ/ Pi3K δ IC 50 nM. An excerpt:
Assay 1: Fluorescent determination of PI3Kinase Kinase enzyme activity
Phosphoinositide 3 kinases (PI3K) belong to a class of lipid kinases that play a critical role in the regulation of several key cellular processes. The PI3K are capable of phosphorylating the 3-hydroxy position of phosphoinositols thereby generating second messengers involved in downstream signalling events. The homogenous time resolved fluorescence (HTRF) assay allows detection of 3,4,5-triphosphate (PIP3) formed as a result of phosphorylation of phosphotidylinositol 4,5-biphosphate (PIP2) by PI3K isoforms such as α, β, γ or δ.
PI3K isoform activity for α, β, γ or δ was determined using a PI3K human HTRF™ Assay Kit (Millipore, Billerica, Mass.) with modifications. All incubations were carried out at room temperature. […] After the initial incubation, 5 μl/well of 400 μM ATP was added and incubated for an additional 30 minutes. Reaction was terminated by adding 5 μl/well stop solution (Millipore, Billerica, Mass.). Five microliters of detection mix (Millipore, Billerica, Mass.) were then added to each well and was incubated for 6-18 h in the dark. […] Data were analyzed using Graphpad Prism (Graphpad software; San Diego Calif.) for IC50 determination. Percent inhibition was calculated based on the values for the blank and enzyme controls.
In general terms: Time-resolved FRET reads energy transfer from a long-lived donor to a nearby acceptor.

Chain of P110 δ/Pi3K δ (O00329 whole entry, canonical isoform): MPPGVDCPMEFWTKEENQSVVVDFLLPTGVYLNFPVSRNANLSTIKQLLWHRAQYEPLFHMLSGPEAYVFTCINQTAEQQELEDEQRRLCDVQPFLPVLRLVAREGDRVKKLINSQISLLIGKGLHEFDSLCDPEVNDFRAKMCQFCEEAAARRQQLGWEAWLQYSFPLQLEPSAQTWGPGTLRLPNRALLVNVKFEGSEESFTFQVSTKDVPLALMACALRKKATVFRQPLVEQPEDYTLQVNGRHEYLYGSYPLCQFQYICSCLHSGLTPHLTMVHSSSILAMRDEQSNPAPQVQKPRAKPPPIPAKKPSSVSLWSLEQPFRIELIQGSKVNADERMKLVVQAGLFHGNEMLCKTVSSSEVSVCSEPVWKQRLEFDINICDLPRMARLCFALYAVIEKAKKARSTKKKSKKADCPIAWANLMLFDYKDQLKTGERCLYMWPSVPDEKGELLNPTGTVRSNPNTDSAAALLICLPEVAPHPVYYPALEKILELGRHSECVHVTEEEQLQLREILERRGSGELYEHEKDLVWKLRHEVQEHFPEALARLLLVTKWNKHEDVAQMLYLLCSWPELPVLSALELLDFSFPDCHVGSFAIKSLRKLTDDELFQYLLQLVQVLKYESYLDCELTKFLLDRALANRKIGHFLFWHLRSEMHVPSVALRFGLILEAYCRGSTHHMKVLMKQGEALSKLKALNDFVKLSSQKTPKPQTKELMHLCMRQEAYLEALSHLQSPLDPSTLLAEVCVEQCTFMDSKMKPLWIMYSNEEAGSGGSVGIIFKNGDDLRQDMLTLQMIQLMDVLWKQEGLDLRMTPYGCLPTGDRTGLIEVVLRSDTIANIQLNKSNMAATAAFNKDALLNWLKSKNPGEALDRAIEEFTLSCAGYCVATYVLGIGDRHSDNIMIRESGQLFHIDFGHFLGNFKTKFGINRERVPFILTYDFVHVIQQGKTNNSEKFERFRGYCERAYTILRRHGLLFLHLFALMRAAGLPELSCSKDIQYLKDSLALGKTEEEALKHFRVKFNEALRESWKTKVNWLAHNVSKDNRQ
Chain of P110 δ/Pi3K δ (P27986 whole entry partner, canonical isoform): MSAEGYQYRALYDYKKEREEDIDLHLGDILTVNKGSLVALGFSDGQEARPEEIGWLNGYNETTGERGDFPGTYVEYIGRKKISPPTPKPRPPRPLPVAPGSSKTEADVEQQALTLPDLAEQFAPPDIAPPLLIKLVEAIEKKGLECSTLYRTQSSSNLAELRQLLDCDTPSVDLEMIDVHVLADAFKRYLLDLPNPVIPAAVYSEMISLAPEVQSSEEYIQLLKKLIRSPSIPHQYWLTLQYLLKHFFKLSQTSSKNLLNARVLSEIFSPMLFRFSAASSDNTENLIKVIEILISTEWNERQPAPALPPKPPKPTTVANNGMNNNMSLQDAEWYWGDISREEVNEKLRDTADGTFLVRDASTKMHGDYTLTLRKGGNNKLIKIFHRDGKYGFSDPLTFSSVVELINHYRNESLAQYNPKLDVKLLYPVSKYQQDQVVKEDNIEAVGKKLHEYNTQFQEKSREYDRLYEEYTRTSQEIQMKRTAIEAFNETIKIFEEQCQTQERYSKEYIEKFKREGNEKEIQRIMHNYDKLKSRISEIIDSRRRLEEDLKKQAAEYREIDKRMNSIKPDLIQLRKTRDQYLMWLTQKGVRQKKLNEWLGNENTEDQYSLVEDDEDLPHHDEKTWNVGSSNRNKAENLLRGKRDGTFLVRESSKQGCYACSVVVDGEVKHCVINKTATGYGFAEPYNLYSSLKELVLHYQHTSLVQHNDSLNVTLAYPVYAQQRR

In turn, `COc1ccc(NC(C)c2oc3ccc(F)cc3c(=O)c2-c2cccc(F)c2)cc1` (centres unmarked) [Example 165, 6-Fluoro-3-(3-fluorophenyl)-2-(1-(4-methoxyphenylamino)ethyl)-4H-chromen-4-one] had a melting point of 152 to 156 °C. Further, the inhibition at P110 δ/Pi3K δ is under 50%.
Consider `CC(c1oc2ccccc2c(=O)c1-c1cccc(F)c1)n1nc(-c2ccc(F)cc2O)c2c(N)ncnc21` (centres unmarked) [Example 90a, 2-(1-(4-amino-3-(4-fluoro-2-hydroxyphenyl)-1H-pyrazolo[3,4-d]pyrimidin-1-yl)ethyl)-3-(3-fluorophenyl)-4H-chromen-4-one], for which the melting point lay in the range of 235 to 237 °C.
`CC(c1oc2ccc(Br)cc2c(=O)c1-c1ccccc1)n1cnc2c(N)ncnc21` (centres unmarked) [Example 21, 2-(1-(6-Amino-9H-purin-9-yl)ethyl)-6-bromo-3-phenyl-4H-chromen-4-one] showed a melting point of 230 to 231 °C. On P110 δ/Pi3K δ, the inhibition at 1 µM was under 50%.
`CC(c1oc2ccccc2c(=O)c1-c1cccc(F)c1)n1nc(-c2cnn(C)c2)c2c(N)ncnc21` (centres unmarked) [Example 164, 2-(1-(4-amino-3-(1-methyl-1H-pyrazol-4-yl)-1H-pyrazolo[3,4-d]pyrimidin-1-yl)ethyl)-3-(3-fluorophenyl)-4H-chromen-4-one] came in with an inhibition on P110 δ/Pi3K δ of under 50%.
Still for that read-out and setting: next, `Cc1n[nH]c2cc(-c3nn(Cc4oc5ccccc5c(=O)c4-c4ccccc4)c4ncnc(N)c34)ccc12` [Example 92, 2-((4-amino-3-(3-methyl-1H-indazol-6-yl)-1H-pyrazolo[3,4-d]pyrimidin-1-yl)methyl)-3-phenyl-4H-chromen-4-one]: 50 to 100%.
With `CC(c1oc2ccccc2c(=O)c1-c1cccc(F)c1)n1nc(-c2cccc(OC(F)F)c2)c2c(N)ncnc21` (centres unmarked) [Example 178, 2-(1-(4-amino-3-(3-(difluoromethoxy)phenyl)-1H-pyrazolo[3,4-d]pyrimidin-1-yl)ethyl)-3-(3-fluorophenyl)-4H-chromen-4-one], the melting point lay in the range of 176 to 179 °C. The inhibition against P110 δ/Pi3K δ is 50 to 100%.
`CC(c1oc2ccccc2c(=O)c1-c1ccccc1)n1nc(C#CC(C)(C)O)c2c(N)ncnc21` (centres unmarked) [Example 71, 2-(1-(4-amino-3-(3-hydroxy-3-methylbut-1-ynyl)-1H-pyrazolo[3,4-d]pyrimidin-1-yl)ethyl)-3-phenyl-4H-chromen-4-one] gave a melting point of 109 to 113 °C. At P110 δ/Pi3K δ, this molecule registered an inhibition at 1 µM of under 50%.
Molecule `CC(Sc1ncnc2[nH]cnc12)c1oc2ccc(Br)cc2c(=O)c1-c1ccccc1` (centres unmarked) [Example 22, 2-(1-(9H-Purin-6-ylthio)ethyl)-6-bromo-3-phenyl-4H-chromen-4-one] had a melting point of 234 to 237 °C. This molecule yielded an inhibition at 1 µM on P110 δ/Pi3K δ of under 50%.
`Nc1ncnc2c1c(-c1cc(F)c(O)c(F)c1)nn2Cc1oc2ccc(F)cc2c(=O)c1-c1cccc(F)c1` [Example 127a, 2-((4-amino-3-(3,5-difluoro-4-hydroxyphenyl)-1H-pyrazolo[3,4-d]pyrimidin-1-yl)methyl)-6-fluoro-3-(3-fluorophenyl)-4H-chromen-4-one] registered a melting point of 274 to 278 °C. At P110 δ/Pi3K δ, this molecule showed an inhibition of under 50%.
Consider `Cc1n[nH]c2cc(-c3nn(C(C)c4oc5ccccc5c(=O)c4-c4ccccc4)c4ncnc(N)c34)ccc12` (centres unmarked) [Example 104, 2-(1-(4-amino-3-(3-methyl-1H-indazol-6-yl)-1H-pyrazolo[3,4-d]pyrimidin-1-yl)ethyl)-3-phenyl-4H-chromen-4-one], for which the melting point lay in the range of 249 to 252 °C. For the same molecule, at P110 δ/Pi3K δ, the inhibition lay in the range of 50 to 100% and the IC50 was under 250 nM.
As to `CC(c1oc2ccc(Br)cc2c(=O)c1-c1ccccc1)n1ncc2c(N)ncnc21` (centres unmarked) [Example 26, 2-(1-(4-amino-1H-pyrazolo[3,4-d]pyrimidin-1-yl)ethyl)-6-bromo-3-phenyl-4H-chromen-4-one], the melting point was in the range of 239 to 240 °C. On P110 δ/Pi3K δ, this molecule came in with an inhibition at 1 µM of under 50%.
The molecule `Cc1n[nH]c2cc(-c3nn(Cc4oc5ccc(F)cc5c(=O)c4-c4ccccc4)c4ncnc(N)c34)ccc12` [Example 103, 2-((4-amino-3-(3-methyl-1H-indazol-6-yl)-1H-pyrazolo[3,4-d]pyrimidin-1-yl)methyl)-6-fluoro-3-phenyl-4H-chromen-4-one] gave a melting point of 277 to 279 °C. Further, on P110 δ/Pi3K δ, the inhibition was in the range of 50 to 100% and the IC50 was under 250 nM.
Consider `CC(c1oc2ccccc2c(=O)c1-c1cccc(F)c1)n1nc(-c2ccc3cc[nH]c3c2)c2c(N)ncnc21` (centres unmarked) [Example 94, 2-(1-(4-amino-3-(1H-indol-6-yl)-1H-pyrazolo[3,4-d]pyrimidin-1-yl)ethyl)-3-(3-fluorophenyl)-4H-chromen-4-one], for which the melting point was 222 to 225 °C. Further, at P110 δ/Pi3K δ, the inhibition lay in the range of 50 to 100%.
Take `CC(c1oc2ccccc2c(=O)c1-c1cccc(F)c1)n1nc(-c2ccc(N)cc2)c2c(N)ncnc21` (centres unmarked) [Example 107a, 2-(1-(4-amino-3-(4-aminophenyl)-1H-pyrazolo[3,4-d]pyrimidin-1-yl)ethyl)-3-(3-fluorophenyl)-4H-chromen-4-one]: the melting point fell in the range of 91 to 94 °C. The same molecule returned an inhibition at P110 δ/Pi3K δ of under 50%.
On to `CCC(c1oc2ccccc2c(=O)c1-c1ccc(F)cc1)n1cnc2c(N)ncnc21` (centres unmarked) [Example 37, 2-(1-(6-Amino-9H-purin-9-yl)propyl)-3-(4-fluorophenyl)-4H-chromen-4-one], for which the melting point was in the range of 223 to 227 °C. Also, the inhibition at 1 µM at P110 δ/Pi3K δ is under 50%.
For `CC(c1oc2ccc(Br)cc2c(=O)c1-c1ccccc1F)n1cnc2c(N)ncnc21` (centres unmarked) [Example 28, 2-(1-(6-Amino-9H-purin-9-yl)ethyl)-6-bromo-3-(2-fluorophenyl)-4H-chromen-4-one] the same measures were 256 to 258 °C and under 50%.
`Cl.O=c1c(-c2ccccc2)c(CN2CCOCC2)oc2ccc(Br)cc12` returned a melting point of 229 to 230 °C.
Same read-out and setting: next, `Cc1cccc2c1ncn2Cc1oc2ccccc2c(=O)c1-c1ccccc1` [Example 8, 2-[(4-methyl-1H-benzo[d]imidazol-1-yl)methyl]-3-phenyl-4H-chromen-4-one]: 204 to 208 °C.
In the case of `COc1cc(-c2nn(C(C)c3oc4ccccc4c(=O)c3-c3cccc(F)c3)c3ncnc(N)c23)ccc1F` (centres unmarked) [Example 82, 2-(1-(4-amino-3-(4-fluoro-3-methoxyphenyl)-1H-pyrazolo[3,4-d]pyrimidin-1-yl)ethyl)-3-(3-fluorophenyl)-4H-chromen-4-one], the inhibition against P110 δ/Pi3K δ was 50 to 100%.
Same read-out and setting: then `CC(c1oc2ccccc2c(=O)c1-c1cccc(F)c1)n1nc(-c2cc(F)c(O)c(F)c2)c2c(N)ncnc21` (centres unmarked) [Example 126a, 2-(1-(4-amino-3-(3,5-difluoro-4-hydroxyphenyl)-1H-pyrazolo[3,4-d]pyrimidin-1-yl)ethyl)-3-(3-fluorophenyl)-4H-chromen-4-one], with under 50%.
In turn, `CC(c1oc2ccccc2c(=O)c1-c1cccc(F)c1)n1nc(-c2cncnc2)c2c(N)ncnc21` (centres unmarked) [Example 160, 2-(1-(4-amino-3-(pyrimidin-5-yl)-1H-pyrazolo[3,4-d]pyrimidin-1-yl)ethyl)-3-(3-fluorophenyl)-4H-chromen-4-one] gave a melting point of 207 to 211 °C.
On P110 δ/Pi3K δ, `COc1cc(F)ccc1-c1nn(C(C)c2oc3ccccc3c(=O)c2-c2cccc(F)c2)c2ncnc(N)c12` (centres unmarked) [Example 90, 2-(1-(4-amino-3-(4-fluoro-2-methoxyphenyl)-1H-pyrazolo[3,4-d]pyrimidin-1-yl)ethyl)-3-(3-fluorophenyl)-4H-chromen-4-one] returned an inhibition of under 50%.
`CC(C)Oc1ccc(-c2nn(C(C)c3oc4ccccc4c(=O)c3-c3cccc(F)c3)c3ncnc(N)c23)cc1F` (centres unmarked) [Example 158, 2-(1-(4-amino-3-(3-fluoro-4-isopropoxyphenyl)-1H-pyrazolo[3,4-d]pyrimidin-1-yl)ethyl)-3-(3-fluorophenyl)-4H-chromen-4-one]: on P110 δ/Pi3K δ, the inhibition fell in the range of 50 to 100% and the IC50 was under 250 nM.
Turning to `O=c1c(-c2ccccc2)c(Cn2cnc3ccccc32)oc2ccc(Br)cc12` [Example 5, 2-[(1H-Benzo[d]imidazol-1-yl)methyl]-6-bromo-3-phenyl-4H-chromen-4-one], the melting point lay within 192 to 197 °C.
`Cl.O=c1c(-c2ccc(F)cc2)c(CN2CCOCC2)oc2ccc(Br)cc12`: the melting point was in the range of 232 to 236 °C.
Take `CC(c1oc2ccccc2c(=O)c1-c1cccc(F)c1)n1nc(-c2ccc(F)c(O)c2)c2c(N)ncnc21` (centres unmarked) [Example 82a, 2-(1-(4-amino-3-(4-fluoro-3-hydroxyphenyl)-1H-pyrazolo[3,4-d]pyrimidin-1-yl)ethyl)-3-(3-fluorophenyl)-4H-chromen-4-one]: the melting point is 241 to 244 °C.
The same measure, in the same setting: then `Cc1ccccc1-c1c(Cn2cnc3c(N)ncnc32)oc2ccc(Br)cc2c1=O` [Example 19, 2-[(6-Amino-9H-purin-9-yl)methyl]-6-bromo-3-o-tolyl-4H-chromen-4-one], with 252 to 255 °C; and `CCOc1ccc2cc(-c3nn(C(C)c4oc5ccccc5c(=O)c4-c4cccc(F)c4)c4ncnc(N)c34)ccc2c1` (centres unmarked) [Example 175, 2-(1-(4-amino-3-(6-ethoxynaphthalen-2-yl)-1H-pyrazolo[3,4-d]pyrimidin-1-yl)ethyl)-3-(3-fluorophenyl)-4H-chromen-4-one], with 286 to 290 °C.
